From article PMC9295122, “Sialic Acid Derivatives Inhibit SiaT Transporters and Delay Bacterial Growth” (ACS Chemical Biology, 2022)

T1: PmSiaT (Proteus mirabilis, UniProt B4EZY7)
T1 construct: made in house
T1 sequence (B4EZY7 1-496): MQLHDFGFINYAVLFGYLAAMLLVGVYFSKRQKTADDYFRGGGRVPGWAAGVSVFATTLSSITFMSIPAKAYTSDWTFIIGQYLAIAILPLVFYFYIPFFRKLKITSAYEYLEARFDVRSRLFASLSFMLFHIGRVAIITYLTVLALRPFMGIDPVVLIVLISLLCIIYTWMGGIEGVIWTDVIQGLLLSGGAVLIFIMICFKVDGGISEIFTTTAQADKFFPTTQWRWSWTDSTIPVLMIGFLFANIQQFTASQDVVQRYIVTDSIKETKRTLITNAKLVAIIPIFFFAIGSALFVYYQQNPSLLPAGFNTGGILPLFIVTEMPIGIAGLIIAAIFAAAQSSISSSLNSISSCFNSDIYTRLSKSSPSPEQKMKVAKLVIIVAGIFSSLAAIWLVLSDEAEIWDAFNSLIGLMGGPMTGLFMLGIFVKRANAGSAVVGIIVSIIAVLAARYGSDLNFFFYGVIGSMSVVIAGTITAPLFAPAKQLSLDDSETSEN

B1: SiaT from S. aureus (Staphylococcus aureus subsp. aureus USA300) (protein)
chain: MKEVGFGTLNWVAVIIYLLAMLFIGVYFTKRASQSTNSFFTASGRLPSWVVGFSIYATTLSAITFMSTPEKAFLTDWSYIAGNIAIVAIIPLLIYFYVPFFKKLKVTSAYEYLEARFGPSIRVIGSLLFVVYHLGRVAIVIYLPTLAITSVSDMNPYIVASLVGLLCILYTFLGGFEGVVWSDFIQGVILLGGALVIIILGVVNIKGGFGTVFADAIEHKKLISADNWKLNTAAAAIPIIFLGNIFNNLYQYTASQDVVQRYQASDSLKETNKSLWTNGILALISAPLFYGMGTMLYSFYTHEAVLPKGFNTSSVVPYFILTEMPPFVAGLLIAAIFAAAQSTISSSLNSISACISIDIKQRFFGKGSERHEVNFARFIIIIAGIFGFGMSLYLIASNSNDLWDLFLFVTGLFGVPLAGVFAVGIFTKRTNTFGVICGLILGIIFAYVYNGVGKGNSPFYVSTISFTVAFVFAYILSFIVPSKHKKDITGLTIFEKDKPSTYISKTATKK

Key:
PmSiaT = target: T1, PmSiaT; assay: nanoDSF thermal shift assay, PmSiaT; type: binding; details: for Average 1 / Average 2 / Average 3 / Replicate 1 / Replicate 2 / Replicate 3: PmSiaT Tm; for Average 1: average of experiment 1; for Average 2: average of experiment 2; for Average 3: average of experiment 3; for Replicate 1: experiment 1, second capillary; for Replicate 1 / Replicate 2 / Replicate 3 / Tm 1 / Tm2 / Tm 3 / Tm average overall: 1.25 mM; for Replicate 2: experiment 2, second capillary; for Replicate 3: experiment 3, second capillary; for Tm 1 / Tm2 / Tm 3 / Tm average overall: PmSiaT; for Tm 1: experiment 1, first capillary; for Tm2: experiment 2, first capillary; for Tm 3: experiment 3, first capillary; for Tm average overall: three experiments
Method in brief: (§1)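 Protein at 2 μM in PBS with 0.0174% (w/v) DDM and ligand at 1.25 mM were heated from 25 to 95 °C at 1 °C/min, with 330/350 nm fluorescence ratio and its first derivative giving Tm. ΔTm is relative to the Neu5Ac Tm, averaged over 3 experiments with 2 capillaries each.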

SaSiaT = SaSiaT (Staphylococcus aureus, UniProt A0A0H2XJ46); assay: nanoDSF thermal shift assay, SaSiaT; type: binding; details: for Average 1 / Average 2 / Average 3 / Replicate 1 / Replicate 2 / Replicate 3: SaSiaT Tm; for Average 1: average of experiment 1; for Average 2: average of experiment 2; for Average 3: average of experiment 3; for Replicate 1: experiment 1, second capillary; for Replicate 1 / Replicate 2 / Replicate 3 / Tm 1 / Tm2 / Tm 3 / Overall average (Tm): 1.25 mM; for Replicate 2: experiment 2, second capillary; for Replicate 3: experiment 3, second capillary; for Tm 1 / Tm2 / Tm 3 / Overall average (Tm): SaSiaT; for Tm 1: experiment 1, first capillary; for Tm2: experiment 2, first capillary; for Tm 3: experiment 3, first capillary; for Overall average (Tm): three experiments
Method in brief: as §1

[1] = substrate: CC(=O)N[C@H]1[C@H]([C@H](O)[C@H](O)CO)OC(O)(C(=O)O)C[C@@H]1O; assay: cells, lysate or membranes named; details: other: Neu5Ac transport by SaSiaT in proteoliposomes; pH 7.0; 25.0 °C
Experimental: A kinetic analysis was performed by measuring the concentration-dependent uptake of [^3H]Neu5Ac in the presence of two different concentrations of the inhibitors 3f (Figure 5a,c) or 3e (Figure 5b,d).
(a–d) Data were plotted according to Lineweaver–Burk as a reciprocal transport rate vs reciprocal Neu5Ac concentration. The transport rate was measured, in 5 min, by adding [^3H] Neu5Ac at the indicated concentrations to proteoliposomes containing 20 mM K^+-gluconate in the presence of valinomycin as described in the Supporting Information. [(A,B) P. mirabilis SiaT]; (A) compound 3f 0.25 μM (●) or 0.75 μM (□) was added in comparison to samples without inhibitor (○). […]
For uptake experiments, 600 μL of proteoliposomes were loaded onto a Sephadex G-75 column (0.7 cm diameter × 15 cm height), pre-equilibrated with 20 mM Hepes Tris pH 7.0 with 40 mM sucrose to balance the internal osmolarity. […] For kinetic measurement, the initial transport rate was measured by stopping the reaction after 5 min, that is, within the initial linear range of [^3H]-Neu5Ac uptake into the proteoliposomes previously described. […] In both uptake and efflux experiments, the transport assay was terminated by loading each proteoliposome sample (100 μL) on a Sephadex G-75 column (0.6 cm diameter × 8 cm height) to remove the external radioactivity. […]

Molecule | Average 1 (PmSiaT) | Average 2 (PmSiaT) | Average 3 (PmSiaT) | Replicate 1 (PmSiaT) | Replicate 2 (PmSiaT) | Replicate 3 (PmSiaT) | Tm 1 (PmSiaT) | Tm2 (PmSiaT) | Tm 3 (PmSiaT) | Tm average overall (PmSiaT) | Average 1 (SaSiaT) | Average 2 (SaSiaT) | Average 3 (SaSiaT) | Replicate 1 (SaSiaT) | Replicate 2 (SaSiaT) | Replicate 3 (SaSiaT) | Tm 1 (SaSiaT) | Tm2 (SaSiaT) | Tm 3 (SaSiaT) | Overall average (Tm) (SaSiaT) | other results
CC(=O)N[C@H]1[C@H]([C@H](O)[C@H](O)CO)OC(C(=O)O)=C[C@@H]1O [Compound 9, 2-deoxy-2,3-didehydro-N-acetylneuraminic acid, reference compound] | 45.9 °C | 46.2 °C | 46.2 °C | 45.7 °C | 46.1 °C | 46.3 °C | 46.1 °C | 46.3 °C | 46.2 °C | 46.1 °C | 45.1 °C | 45.8 °C | 45.9 °C | 45.2 °C | 46.4 °C | 46.4 °C | 45.0 °C | 45.2 °C | 45.4 °C | 45.6 °C | 
O=C(CO)N[C@H]1[C@H]([C@H](O)[C@H](O)CO)OC(O)(C(=O)O)C[C@@H]1O (stereo partly shown) [Neu5Gc, 5-N-glycolyl neuraminic acid, reference compound] | 48.0 °C | 48.1 °C | 48.0 °C | 48.0 °C | 48.0 °C | 48.0 °C | 47.9 °C | 48.1 °C | 48.0 °C | 48.0 °C | 53.3 °C | 53.3 °C | 53.6 °C | 53.3 °C | 53.4 °C | 53.6 °C | 53.3 °C | 53.2 °C | 53.6 °C | 53.4 °C | ΔTm at 1250 µM (PmSiaT; read-out: ΔTm average overall): -1.2 °C
B1 |  |  |  |  |  |  |  |  |  |  |  |  |  |  |  |  |  |  |  |  | Km [1]: 12.2 ± 2.2 µM; Vmax [1]: 51 ± 9 nmol/mg protein/min
